Measurements published in patent US20230286946A1, “DIFLUOROMETHYL-PYRIDIN-2-YL TRIAZOLES” (Boehringer Ingelheim International GmbH, priority 2020, published 2023).

Legend:
[1] = Metabolic stability in human liver microsomes (Human MST); format: in vitro ADME; details: pH 7.6, pooled human liver microsomes, 37° C., read-out: Human MST t½
Procedure: Assessment of Metabolic Stability in Human Liver Microsomes (Human MST) The metabolic stability of the compounds according to the invention may be investigated as follows: The metabolic degradation of the test compound is assayed at 37° C. with pooled human liver microsomes. The final incubation volume of 100 μL per time point contains TRIS buffer pH 7.6 at room temperature (0.1 M), MgCl2 (5 mM), microsomal protein (1 mg/mL) and the test compound at a final concentration of 1 μM. Following a short pre-incubation period at 37° C., the reactions are initiated by addition of beta-nicotinamide adenine dinucleotide phosphate, reduced form (NADPH, 1 mM), and terminated by transferring an aliquot into solvent after different time points. After centrifugation (10000 g, 5 min), an aliquot of the supernatant is assayed by LCMS/MS for the amount of parent compound. The half-life (t1/2) is determined by the slope of the semi-logarithmic plot of the concentration-time profile.

human MDR1 P-gp = assay: Assessment of efflux in MDCK cells transfected with the human MDR1 gene; format: in vitro ADME, canine; details: dog, pH 7.4, 37° C.; for Papp A→B: apical-to-basal, read-out: MDCK-PGP A-B; for efflux ratio: read-out: MDCK-PGP Efflux ratio [PEBA/PEAB]
Procedure: Assessment of efflux in Madin-Darby canine kidney (MDCK) cells transfected with the human MDR1 gene to assess brain penetration (Drug Metabolism and Disposition February 2008, 36 (2) 268-275; DOI: https://doi.org/10.1124/dmd.107.017434)
Apparent permeability coefficients (PE) of the compounds across the MDCK-MDR1 cell monolayers are measured (pH 7.4, 37° C.) in apical-to-basal (AB) and basal-to-apical (BA) transport direction. AB permeability (PEAB) represents drug absorption from the blood into the 35 brain and BA permeability (PEBA) drug efflux from the brain back into the blood via both passive permeability as well as active transport mechanisms mediated by efflux and uptake transporters that are expressed on the MDCK-MDR1 cells, predominantly by the overexpressed human MDR1 P-gp. The compounds are assigned to permeability/absorption classes by comparison of the AB permeabilities with the AB permeabilities of reference compounds with known in vitro permeability and oral absorption in the human. Identical or similar permeabilities in both transport directions indicate passive permeation, vectorial permeability points to additional active transport mechanisms. Higher PEBA than PEAB indicates the involvement of active efflux mediated by MDR1 P-gp. Active transport is concentration-dependently saturable.
MDCK-MDR1 cells (1-2×10e5 cells/1 cm2 area) are seeded on filter inserts (Costar transwell polycarbonate or PET filters, 0.4 μm pore size) and cultured (DMEM) for 7 days. Subsequently, the MDR1 expression is boosted by culturing the cells with 5 mM sodium butyrate in full medium for 2 days. Compounds are dissolved in appropriate solvent (like DMSO, 1-20 mM stock solutions). Stock solutions are diluted with HTP-4 buffer (128.13 mM NaCl, 5.36 mM KCl, 1 mM MgSO4, 1.8 mM CaCl2, 4.17 mM NaHCO3, 1.19 mM Na2HPO4×7H2O, 0.41 mM NaH2PO4×H2O, 15 mM HEPES, 20 mM glucose, 0.25% BSA, pH 7.4) to prepare the transport solutions (0.1-300 μM compound, final DMSO <=0.5%). The transport solution (TL) is applied to the apical or basolateral donor side for measuring A-B or B-A permeability (3 filter replicates), respectively. The receiver side contains the same buffer as the donor side. Samples are collected at the start and end of experiment from the donor and at various time intervals for up to 2 hours also from the receiver side for concentration measurement by HPLC-MS/MS or scintillation counting. Sampled receiver volumes are replaced with fresh receiver solution.

| SMILES | half-life at 1 μM [1] | Papp A→B (human MDR1 P-gp) | efflux ratio (human MDR1 P-gp) |
| --- | --- | --- | --- |
| Cc1n[nH]c(C)c1-c1ccc(OCc2c(C)nnn2-c2ccc(C(F)F)cn2)nn1 [Example 15] |  | 17 ×10⁻⁶ cm/s | 3.5 |
| CNc1cccc(-c2ccc(OCc3c(C)nnn3-c3ccc(C(F)F)cn3)nn2)n1 [Example 14] |  | 55 ×10⁻⁶ cm/s | 0.7 |
| Cc1cc(-c2ccc(OCc3c(C)nnn3-c3ccc(C(F)F)cn3)nn2)cnn1 [Example 3] | > 2.17 h | 41 ×10⁻⁶ cm/s | 1.4 |
| Cc1nnn(-c2ccc(C(F)F)cn2)c1COc1ccc(-c2cn[nH]c2)nn1 [Example 4] | 0.667 h | 57 ×10⁻⁶ cm/s | 0.8 |
| Cc1nnn(-c2ccc(C(F)F)cn2)c1COc1ccc(-c2cccc(C(N)=O)c2)nn1 [Example 6] | 1.93 h |  |  |
| Cc1nnn(-c2ccc(C(F)F)cn2)c1COc1ccc(-c2ccc(C#N)nc2)nn1 [Example 8] | > 2.17 h |  |  |
| Cc1nnn(-c2ccc(C(F)F)cn2)c1COc1ccc(-c2ccc(S(C)(=O)=O)nc2)nn1 [Example 16] |  | 59 ×10⁻⁶ cm/s | 0.6 |
| Cc1nnn(-c2ccc(C(F)F)cn2)c1COc1ccc(-c2ccc(C#N)s2)nn1 [Example 12] |  | 51 ×10⁻⁶ cm/s | 0.3 |
| Cc1c(-c2ccc(OCc3c(-c4ccc(C(F)F)cn4)nnn3C)nn2)cc(C#N)n1C [Example 29] | 1.62 h |  |  |
| Cn1nnc(-c2ccc(C(F)F)cn2)c1COc1ccc(-c2ccc(N)nc2)nn1 [Example 25] | > 2.17 h |  |  |
| Cn1nnc(-c2ccc(C(F)F)cn2)c1COc1ccc(-c2cccc(C(N)=O)c2)nn1 [Example 28] | > 2.17 h | 3 ×10⁻⁶ cm/s | 17.2 |
| Cc1nnn(-c2ccc(C(F)F)cn2)c1COc1ccc(-c2ccc(N)nc2)nn1 [Example 19] |  | 41 ×10⁻⁶ cm/s | 1.2 |
| CCn1cc(-c2ccc(OCc3c(-c4ccc(C(F)F)cn4)nnn3C)nn2)cn1 [Example 22] | > 2.17 h | 40 ×10⁻⁶ cm/s | 1.1 |
| Cc1nnn(-c2ccc(C(F)F)cn2)c1COc1ccc(-c2cnc(N)nc2)nn1 [Example 2] |  | 34 ×10⁻⁶ cm/s | 1.9 |
| Cn1nnc(-c2ccc(C(F)F)cn2)c1COc1ccc(-c2cn[nH]c2)nn1 [Example 24] | 1.03 h | 10 ×10⁻⁶ cm/s | 6.6 |
| Cc1nnn(-c2ccc(C(F)F)cn2)c1COc1ccc(-c2ccc(=O)n(C)c2)nn1 [Example 1, 5-[6-({1-[5-(difluoromethyl)pyridin-2-yl]-4-methyl-1H-1,2,3-triazol-5-yl}methoxy)pyridazin-3-yl]-1-methyl-1,2-dihydropyridin-2-one] | > 2.17 h | 31 ×10⁻⁶ cm/s | 1.8 |
| Cc1nnn(-c2ccc(C(F)F)cn2)c1COc1ccc(-c2c[nH]c(=O)c(F)c2)nn1 [Example 20] | > 2.17 h | 15 ×10⁻⁶ cm/s | 2 |
| Cc1nnn(-c2ccc(C(F)F)cn2)c1COc1ccc(-c2cc[nH]n2)nn1 [Example 5] | 1.38 h |  |  |
| Cc1nnn(-c2ccc(C(F)F)cn2)c1COc1ccc(-c2cnn(CC#N)c2)nn1 [Example 7] | > 2.17 h |  |  |
| Cn1nnc(-c2ccc(C(F)F)cn2)c1COc1ccc(-c2ccc(S(C)(=O)=O)nc2)nn1 [Example 23] | > 2.17 h |  |  |
| Cc1nnn(-c2ccc(C(F)F)cn2)c1COc1ccc(-c2ccnnc2)nn1 [Example 17] | > 2.17 h | 51 ×10⁻⁶ cm/s | 1 |
| Cc1ncc(-c2ccc(OCc3c(C)nnn3-c3ccc(C(F)F)cn3)nn2)o1 [Example 18] | > 2.17 h | 71 ×10⁻⁶ cm/s | 0.6 |

The remaining lines, values ahead:

| half-life at 1 μM [1] | Papp A→B (human MDR1 P-gp) | efflux ratio (human MDR1 P-gp) | SMILES |
| --- | --- | --- | --- |
| > 2.17 h | 69 ×10⁻⁶ cm/s | 0.8 | Cc1ncnn1-c1ccc(OCc2c(-c3ccc(C(F)F)cn3)nnn2C)nn1 [Example 48, 3-({4-[5-(difluoromethyl)pyridin-2-yl]-1-methyl-1H-1,2,3-triazol-5-yl}methoxy)-6-(5-methyl-1H-1,2,4-triazol-1-yl)pyridazine] |
| > 2.17 h | 59 ×10⁻⁶ cm/s | 0.6 | Cn1nnc(-c2ccc(C(F)F)cn2)c1COc1ccc(-c2cnccn2)nn1 [Example 39] |
| 2.12 h |  |  | COc1ncc(-c2ccc(OCc3c(-c4ccc(C(F)F)cn4)nnn3C)nn2)cn1 [Example 31] |
| > 2.17 h | 58 ×10⁻⁶ cm/s | 0.6 | Cc1nnn(-c2ccc(C(F)F)cn2)c1COc1ccc(-c2cnccn2)nn1 [Example 56, 3-({1-[5-(difluoromethyl)pyridin-2-yl]-4-methyl-1H-1,2,3-triazol-5-yl}methoxy)-6-(pyrazin-2-yl)pyridazine] |
|  | 86 ×10⁻⁶ cm/s | 0.5 | Cc1nnn(-c2ccc(C(F)F)cn2)c1COc1ccc(-n2ncnc2C)nn1 [Example 38] |
|  | 24 ×10⁻⁶ cm/s | 1.4 | Cc1nnn(-c2ccc(C(F)F)cn2)c1COc1ccc(-n2cnc(C#N)c2)nn1 [Example 42, 1-[6-({1-[5-(difluoromethyl)pyridin-2-yl]-4-methyl-1H-1,2,3-triazol-5-yl}methoxy)pyridazin-3-yl]-1H-imidazole-4-carbonitrile] |
| 2.17 h |  |  | Cn1nnc(-c2ccc(C(F)F)cn2)c1COc1ccc(-n2cccn2)nn1 [Example 50] |
| > 2.17 h |  |  | Cn1nnc(-c2ccc(C(F)F)cn2)c1COc1ccc(-c2cnc3nonc3c2)nn1 [Example 35] |
| > 2.17 h |  |  | Cn1nnc(-c2ccc(C(F)F)cn2)c1COc1ccc(-n2cc(C#N)cn2)nn1 [Example 49] |
| 1.3 h |  |  | Cn1nnc(-c2ccc(C(F)F)cn2)c1COc1ccc(-c2cnn(C3CCC3)c2)nn1 [Example 32] |
| > 2.17 h |  |  | Cn1nnc(-c2ccc(C(F)F)cn2)c1COc1ccc(-n2ccc(C#N)n2)nn1 [Example 53] |
|  | 54 ×10⁻⁶ cm/s | 0.7 | Cc1nnn(-c2ccc(C(F)F)cn2)c1COc1ccc(-n2nccn2)nn1 [Example 43] |
| 1.63 h |  |  | Cc1c(-c2ccc(OCc3c(-c4ccc(C(F)F)cn4)nnn3C)nn2)cnn1C [Example 33] |
| > 2.17 h | 18 ×10⁻⁶ cm/s | 2.7 | Cn1nnc(-c2ccc(C(F)F)cn2)c1COc1ccc(-n2cnc(C#N)c2)nn1 [Example 52] |
| > 2.17 h |  |  | Cc1nn(C)cc1-c1ccc(OCc2c(-c3ccc(C(F)F)cn3)nnn2C)nn1 [Example 30] |
| 2.15 h | 59 ×10⁻⁶ cm/s | 0.4 | Cc1nnn(-c2ccc(C(F)F)cn2)c1COc1ccc(-n2cc(C#N)cn2)nn1 [Example 37] |
